Assay results: PubChem BioAssay AID504343 (Broad Institute, 2011)
Records with an inconclusive call do not appear. Active and inactive are the calls of the source.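 Rule for the calls: active = fitted curve reaches 10% of positive control caspase signal at or below top valid tested dose; inconclusive = flat fit at 30 to 70% activity, or unreliable fit; inactive = the rest.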

System: not listed separately
Experiment: caspase activation in Mcl1-dependent HMC1-8 cells, dose response, selectivity assay for Bcl2-A1 inhibitor project, cell-based, caspase luminescence, dry powder, set 2 (AID 504343)
Conditions: HMC1-8 Mcl1-dependent cells, caspase-Glo luminescence, 4 h; at 35 µM (top of the series)

SMILES | caspase activation
CN1C(=O)C(C)(C)N(Cc2ccccc2)c2ccccc21 | 9.6% (inactive)
Cn1c(=O)c([N+](=O)[O-])c(Oc2ccccc2)c2ccccc21 | 2.58% (inactive)
Cn1c(=O)c([N+](=O)[O-])c(Cl)c2ccccc21 | -12.8% (inactive)
Cc1ccc(Nc2c([N+](=O)[O-])c(=O)n(C)c3ccccc23)cc1 | 10.1% (inactive)
CCOCCCNc1c([N+](=O)[O-])c(=O)n(C)c2ccccc12 | -2.94% (inactive)
Cn1c(=O)c([N+](=O)[O-])c(Nc2ccc(Cl)cc2)c2ccccc21 | 1.67% (inactive)
Cc1ccc(Sc2c([N+](=O)[O-])c(=O)n(C)c3ccccc23)cc1 | 0.553% (inactive)
Cc1ccc(Nc2c([N+](=O)[O-])c(=O)oc3ccccc23)cc1 | 12.1% (inactive)

System: HMC1-8 Mcl1-dependent cells, caspase-Glo luminescence, 4 h
Experiment: as above
Conditions: not given

SMILES | AC10
Cn1c(=O)c([N+](=O)[O-])c(-n2cnc3ccccc32)c2ccccc21 | 20 µM
C/C1=C/C(=O)O[C@@H]2C[C@@H](CC[C@H](C)/C=C\CC1)O[C@@](O)(C1CSC(=O)N1)C2 (some centres not stated) | > 35 µM (inactive)
Cc1ccc(Sc2c([N+](=O)[O-])cnc3ccccc23)cc1 | 25 µM
O=[N+]([O-])c1cnc2ccccc2c1Sc1ccccc1 | 25 µM
